Series [1] has as its system human umbilical vascular endothelial (HUVE) cells. Description: HUVE cell growth (BrdU incorporation). As to conditions: for HUVE cell growth induced by PDGF / HUVE cell growth induced by VEGF / HUVE cell growth induced by bFGF: concentration not given. It counts as cell-based. Here is the method:
Incorporation of 5-bromo-2′-deoxyuridibe (BrdU) is a common method used to detect the DNA replication in actively proliferating cells. Inhibition of cell growth is inferred by the decrease of BrdU incorporation into the cells. […] The assay can be preformed in the presence or absence of growth factors such as VEGF, bFGF and PDGF. This assay was performed by a procedure described in Huang S, Chen C S, Ingber D E. “Control of cyclin D1, p 27(Kip1), and cell cycle progression in human capillary endothelial cells by cell shape and cytoskeletal tension.” Mol Biol Cell. 1998, 9:3179-93, the teachings of which are incorporated herein by reference.
On the technique in general: Uptake of a labelled nucleoside into DNA is a usual measure of proliferation.

In series [2] the test system is developing vasculature of the newborn mouse retina. As to the kind of experiment: In vivo screening assay for inhibitors of retinal angiogenesis (intravitreous injection, newborn mice). Particulars: for retinal vessel formation: 5 nmol single injection. From the text:
Blood vessel formation is critical for organ formation in the body. Compounds that inhibit angiogenesis within specific tissue types have therapeutic potential. For example, compounds that are effective in the retina may be used for the treatment of many types of blindness and other opthalmological diseases. Therefore, an in vivo method to screen for compounds that inhibit the growing vascular networks within the developing whole retina in eyes of living newborn mice was developed.
To screen in vivo in the eye for inhibitors of retinal angiogenesis, we adapted and modified the system described in Mammoto, A., Connor, K. M., Mammoto, T., Yung, C. W., Huh, D., Aderman, C. M., Mostoslaysky, G., Smith, L. E. H., & Ingber, D. E. A mechanosensitive transcriptional mechanism that controls angiogenesis. Nature 457, 1103-1108 (2009); and Shih, S. C., Ju, M., Liu, N. & Smith, L. E. Selective stimulation of VEGFR-1 prevents oxygen-induced retinal vascular degeneration in retinopathy of prematurity. J. Clin. Invest. 112, 50-7 (2003), the teachings of both are incorporated herein by reference. This assay was performed by a procedure described in Chen J, Connor K M, Aderman C M, Smith L E. “Erythropoietin deficiency decreases vascular stability in mice.” J. Clin. Invest. 2008, 118:526-33, the teachings of which are incorporated herein by reference.
After intraperitoneal injection of Avertin (125-240 mg/kg), the eyelid of mice was opened in a gentle manner by using tiny sterile blunt forceps. Test compound was injected into the vitreous of one eye of the mouse and a vehicle was injected into the other eye of the same mouse at either P6 or P14. Injections were performed by inserting an Exmire microsyringe (MS-NE05, ITO Corp. Fuji, Japan) into the vitreous 1 mm posterior to the corneal limbus. Pupils were dilated with 1% tropicamide. Insertion and the injection (0.3-0.5 μL solution) were directly viewed through an operating microscope, taking care not to injure the lens or the retina. The time points for intravitreous injection were set at P6 and P14 because these stages represent distinct developmental stages during vascular network formation. Blood vessels start spreading over the surface of retinal tissue at early times (P4-P6), then these distributed blood vessels start migrating into the deeper layer of the retina to make a three-dimensional vascular network at later times (P6-P14). Thus, using this approach, screening for inhibitors of initiation of angiogenesis at early times, and agents that induce regression of preexisting capillary vessels at the later time point can be identified.
After injection, the eyelid was treated with bacitracin eye antibiotic ointment, and eyelids naturally reformed after the procedure. Vascular network formation in the retina was assessed two days after injection using flat-mounted, fluorescein-conjugated isolectin-staining and immunohistochemical analysis. Quantification of vessel density was performed with Adobe photoshop.

For series [3], the system named is human umbilical vascular endothelial (HUVE) cells. As to the kind of experiment: HUVE cell migration, transwell migration assay stimulated by VEGF. Particulars: for HUVE cell migration: 20 ng/ml VEGF. It counts as cell-based. Here is the method:
Cell migration is an important aspect of angiogenesis. The effect of the test compounds on HUVE cell motility as stimulated by VEGF was examined using a transwell migration assay. This assay was performed by a similar procedure described in Shimizu A, Mammoto A, Italiano J E Jr, Pravda E, Dudley A C, Ingber D E, Klagsbrun M. “ABL2/ARG tyrosine kinase mediates SEMA3F-induced RhoA inactivation and cytoskeleton collapse in human glioma cells.” J. Biol. Chem. 2008, 283:27230-8, the teaching of which are incorporated by reference.
Briefly, transwell membranes (Coster, N.Y.) were coated with 0.5% gelatin, and cells were seeded (10^5 cells/100 μl) with 0.3% FBS/EBM2. The test compound was added to the both sides of the chamber. Cells were stained with Giemsa solution 16 hours later, and counted in 10 random fields (×400).

The test system is the same in series [4]. As to the kind of experiment: Tube formation of HUVE cells on Matrigel. Particulars: for tube formation, quantitative analysis of mean tube length: cultured with VEGF in the basal EBM2 medium (FIG. 12). It is filed as cell-based. Here is the method:
The effect of an agent on tube formation of HUVE cells was determined by a procedure described in Grant D S, Kinsella J L, Kibbey M C, LaFlamme S, Burbelo P D, Goldstein A L, Kleinman H K “Matrigel induces thymosin beta 4 gene in differentiating endothelial cells.” J Cell Sci. 1995, 108:3685-94, the teachings of which are incorporated by reference.
Briefly, HUVE cells (10^4 cells/150 μl of EBM-2) were plated on Matrigel™ (BD biosciences) and incubated for 12-16 hrs in the presence of VEGF (20 ng/ml) and the test compound. Tube formation was assessed in 10 random fields (4×).

Series [5] has the same test system. As to the kind of experiment: Compound toxicity in HUVE cells (morphology after 24 h culture). It counts as cell-based. As to conditions: 50-2000 nM, 5% FBS/EGM2 media. Here is the method:
HUVE cells were cultured for 24 hours on standard tissue culture dishes in the presence of EJC 1-6 over a range of concentration (50-2000 nM). […] (FIGS. 1 and 2).

Where [6] appears, read: 50 nM, cultured with VEGF in the basal EBM2 medium.

The results in this text go back to patent US20120190659A1, “ANGIOGENESIS INHIBITORS” (Children's Medical Center Corporation, priority 2009, published 2012).

As for `CN(C)[C@H]1CC[C@H]2[C@@H](CC[C@@H]3[C@@H]2CC[C@]2(C)C(c4ccc5cnccc5c4)=CC[C@@H]32)C1` [EJC-10], the IC50 in series [1] (Homo sapiens, in the presence of PDGF, read-out: IC50, cell growth induced by PDGF) was found to be 79.5 nM; in series [1] (Homo sapiens, in the presence of VEGF, read-out: IC50, cell growth induced by VEGF), 16.7 nM; in series [1] (Homo sapiens, in the presence of bFGF, read-out: IC50, cell growth induced by bFGF) it was 64.1 nM; in series [1] (Homo sapiens, media absent an exogenous growth factor, read-out: IC50, growth of HUVE cells) it was 57.6 nM; in series [1] (in the presence of PDGF, read-out: IC50, cell growth induced by PDGF), 79.5 nM; in series [1] (in the presence of bFGF, read-out: IC50, cell growth induced by bFGF) it was 64.1 nM. Further, the IC50 in series [3] (Homo sapiens, VEGF-stimulated, transwell, read-out: cell migration inhibition IC50) was 70.7 nM. The “HUVE cell growth induced by PDGF” value in series [1] was “inhibited”. The “HUVE cell growth induced by VEGF” value in series [1] is “inhibited”. In addition, the “HUVE cell growth induced by bFGF” value in series [1] was “inhibited”. The retinal vessel formation entry in series [2] (p6 mice) and in series [2] (p14 mice) was “did not inhibit retinal vessel formation completely” each time. For the same molecule, in series [2] (single dose of 500 pmol, p6 mice (FIG. 13)), the “vessel density in the retina compared to control” value is recorded as “decreases”. In addition, in series [2] (single injection of 500 pmol, p6 mice), the retinal angiogenesis result was “inhibited”. Moreover, the HUVE cell migration entry in series [3] (50 nM test compound) is “inhibit”. Further, in series [4] (setting [6]), the tube formation entry is “significant inhibition”. The “tube formation, quantitative analysis of mean tube length” value in series [4] (50 nM) is reported as “inhibit”.

As for `C[C@]12CC[C@H]3[C@@H](CC[C@H]4C[C@@H](N5CCOCC5)CC[C@@H]43)[C@@H]1CC=C2c1ccc2ccncc2c1` [EJC-23], in series [3] (50 nM test compound), the HUVE cell migration entry is reported as “did not inhibit”.

In the case of `C[C@]12CC[C@H]3[C@@H](CC[C@H]4C[C@@H](N5CCOCC5)CC[C@@H]43)[C@@H]1CC=C2c1ccc2cnccc2c1` [EJC-24], the HUVE cell migration entry in series [3] (50 nM test compound) is “did not inhibit”.

As to `C[C@]12CC[C@H]3[C@@H](CC[C@H]4C[C@@H](N5CCCC5)CC[C@@H]43)[C@@H]1CC=C2c1ccc2ccncc2c1` [EJC-21], in series [3] (50 nM test compound), the HUVE cell migration entry is “did not inhibit”.

Consider `CN1CCc2ccc([C@H]3CC[C@H]4[C@@H]5CC[C@H]6C[C@@H](N(C)C)CC[C@@H]6[C@H]5CC[C@]34C)cc2C1` [EJC-8], for which, in series [3] (50 nM test compound), the HUVE cell migration result is on record as “inhibit”.

For `CN(C)[C@H]1CC[C@H]2[C@@H](CC[C@@H]3[C@@H]2CC[C@]2(C)[C@@H](c4ccc5ccncc5c4)CC[C@@H]32)C1` [EJC-07], the HUVE cell migration result in series [3] (200 nM test compound) is reported as “active”.

For the molecule `CN(C)[C@H]1CC[C@H]2[C@@H](CC[C@@H]3[C@@H]2CC[C@]2(C)C(c4cccnc4)=CC[C@@H]32)C1` [EJC-14], in series [1] (50 nM), the “cell growth induced by VEGF” value is recorded as “inhibited”. Also, in series [1], the “HUVE cell growth induced by PDGF” value was “only at higher concentrations and not”; the “HUVE cell growth induced by VEGF” value was “inhibited”; the “HUVE cell growth induced by bFGF” value is “only at higher concentrations and not”. In addition, the retinal vessel formation result in series [2] (p6 mice) was “did not inhibit”. Besides, the retinal vessel formation entry in series [2] (p14 mice) is on record as “did not inhibit”. Besides, in series [3] (50 nM test compound), the HUVE cell migration entry is recorded as “inhibit”.

As to `CN(C)[C@H]1CC[C@H]2[C@@H](CC[C@@H]3[C@@H]2CC[C@]2(C)C(c4cccc5cnccc45)=CC[C@@H]32)C1` [EJC-12], the HUVE cell migration entry in series [3] (50 nM test compound) was “inhibit”.

As for `CN(C)[C@H]1CC[C@H]2[C@@H](CC[C@@H]3[C@@H]2CC[C@]2(C)C(c4cccc5ncccc45)=CC[C@@H]32)C1` [EJC-13], the HUVE cell migration result in series [3] (50 nM test compound) was “moderately active”.

`CN(C)[C@H]1CC[C@H]2[C@@H](CC[C@@H]3[C@@H]2CC[C@]2(C)C(c4ccc5ncccc5c4)=CC[C@@H]32)C1` [EJC-11]: the HUVE cell migration entry in series [3] (50 nM test compound) is reported as “moderately active”.

On to `CN(C)[C@H]1CC[C@H]2[C@@H](CC[C@@H]3[C@@H]2CC[C@]2(C)C(c4ccncc4)=CC[C@@H]32)C1` [EJC-15], for which the HUVE cell migration result in series [3] (50 nM test compound) is “inactive”.

Turning to `CN1CCc2ccc(C3=CC[C@H]4[C@@H]5CC[C@H]6C[C@@H](N(C)C)CC[C@@H]6[C@H]5CC[C@]34C)cc2C1` [EJC-9], the HUVE cell migration entry in series [3] (50 nM test compound) and in series [3] (200 nM test compound) was “not active” throughout. In series [4] (setting [6]), the tube formation entry is “significant inhibition”. For the same molecule, the “tube formation, quantitative analysis of mean tube length” value in series [4] (50 nM) was “inhibit”.

With `C[C@]12CC[C@H]3[C@@H](CC[C@H]4C[C@@H](N5CCCC5)CC[C@@H]43)[C@@H]1CC=C2c1ccc2cnccc2c1` [EJC-22], in series [3] (50 nM test compound), the HUVE cell migration entry was “did not inhibit”.

Consider `CN(C)[C@@H]1CC[C@H]2[C@@H](CC[C@@H]3[C@@H]2CC[C@]2(C)C(c4ccc5ccncc5c4)=CC[C@@H]32)C1` [EJC-1], for which the “growth of HUVE cells (BrdU incorporation)” value in series [1] (0, 200, 1000 and 2000 nM (FIG. 3B)) is “inhibit the growth”. Further, the BrdU incorporation entry in series [1] (1 μM (FIG. 3A)) is “inhibit”. In addition, in series [1] (FIGS. 3A & 3B), the “doses that inhibited BrdU incorporation” value is listed as “greater than 1 μM”. Also, the HUVE cell migration entry is “exhibited inhibitory activity” in series [3] (200 nM test compound), “inhibit” in series [3] (1 μM (1000 nM) test compound) and “inhibit” in series [3] (2000 nM test compound). Besides, the “morphological change of HUVE cells” value in series [5] was “No morphological change”. The tube formation entry in series [4] (2 μM) was “inhibited”.
